A short description of data set [1]: tolerance test by a single administration, healthy person Japanese. In kind it is in vivo, human. The following applies: single dose 10, 20, 40, 80 or 120 mg, tablets, hungry, healthy male Japanese. As to the method: • (1) A single-administration test on healthy male Japanese (20 to 40 years old, body weight: less than 80 kg and not less than 50 kg, degree of corpulence: ±20% or less) was carried out. Using the SMP-114 tablets and a placebo as control, 10, 20, 40, 80 or 120 mg of SMP-114 was administered by a single-blind method when the subjects were hungry (at each dose, 6 cases of SMP-114 administration and 2 cases of placebo administration: 40 subjects in total). As to items of evaluation related to safety, observations about the following were carried out: vital signs (body temperature, blood pressure-pulse rate and respiration rate), 12-induction electrocardiogram, clinical examinations [hematological examination, blood biochemical examination, endocrinological examinations (FT4, FT3 and TSH), serological examination (haptoglobin) and urinalysis], and harmful matters. As items of evaluation related to pharmacokinetics, the concentrations of SMP-114 and its metabolites in serum and urine were measured. […]

Data set [2] deals with rats with adjuvant arthritis. The following applies: cited from earlier work.

Results on 1 compound are retold here after patent US20070082903A1, “Remedy for rheumatoid arthritis” (priority 2003, published 2007).

Turning to `C[C@@H](c1ccc(-c2ccccc2)c(F)c1)c1cc(/N=C(/N)N2CCOCC2)on1` [SMP-114, 3-[(1S)-1-(2-fluorobiphenyl-4-yl)ethyl]-5-{[amino(morpholin-4-yl)methylene]amino}isoxazole], in data set [1], the “side effects undesirable with respect to tolerance” value is listed as “observed at none of the doses”. In addition, the “minimum effective amount for antiarthritic effect” value in data set [2] (once-a-day oral administration) was 2.5 mg/kg. In addition, in data set [2] (rats with adjuvant arthritis), the antiarthritic effect entry is given as “antiarthritic effect”.
